From US20250147039A1, “Compounds for complexation of rare earth elements and/or s-, p-, d- block metals, their coordination compounds, peptide conjugates, method of their preparation and use thereof” (USTAV ORGANICKE CHEMIE A BIOCHEMIE AV CR V.V.I., priority 2021, published 2025)

Key:
[1] = Formation of 1,5-cz-[M(Lig)] from Lig and M^III ions (metal dependent click-zip) (Charts 4, 5); assay type: physicochemical; settings: for conversion to 1,5-cz-[M(Lig)], Bi^III: 4% DMSO in MOPS/NaOH buffer pH 7.0, TD728 in 50% i-PrOH; for conversion to 1,5-cz-[M(Lig)], Ir^III / conversion to 1,5-cz-[M(Lig)], Ru^III: 50% i-PrOH in MOPS/NaOH buffer pH 7.0; for conversion to 1,5-cz-[M(Lig)], Sc^III / conversion to 1,5-cz-[M(Lig)], Y^III: MOPS/NaOH buffer pH 7.0, TD728, TD827 in 50% i-PrOH; for conversion to 1,5-cz-[M(Lig)], Y^III: TD714 sum of two diastereoisomers
[2] = Formation of 1,5-cz-[M(Lig)] from Lig and M^II ions (metal dependent click-zip) (Charts 6, 7); assay type: physicochemical; settings: for conversion to 1,5-cz-[M(Lig)], Pt^II: 50% i-PrOH in MOPS/NaOH buffer pH 7.0; for conversion to 1,5-cz-[M(Lig)], Ca^II / conversion to 1,5-cz-[M(Lig)], Cd^II / conversion to 1,5-cz-[M(Lig)], Mn^II / conversion to 1,5-cz-[M(Lig)], Pb^II / conversion to 1,5-cz-[M(Lig)], Pd^II: MOPS/NaOH buffer pH 7.0, TD728 in 50% i-PrOH
[3] = Formation of 1,5-cz-[Ln(Lig)] from Lig and Ln^III ions (metal dependent click-zip), MOPS/NaOH buffer pH 7.0, analytical HPLC (Charts 1, 2); settings: 50% i-PrOH in aq. MOPS/NaOH Buffer pH 7.0
[4] = Dissociation of chelates in aq. 0.1M HCl at RT (acid decomplexation kinetic inertness) (Chart 20); assay type: physicochemical
[5] = Dissociation of chelates in aq. 0.1M HCl at 80° C. (acid decomplexation kinetic inertness) (Chart 19); assay type: physicochemical
[6] = Dissociation of chelates in aq. 1.0M HCl at 80° C. (acid decomplexation kinetic inertness) (Chart 18); assay type: physicochemical
[7] = Dissociation of chelates in aq. 6.0M HCl at 80° C. (acid decomplexation kinetic inertness) (Chart 17); assay type: physicochemical

CC(C)[Si](C#Cc1cccc(CN2CCN(CC(=O)O)CCN(Cc3cccc(CN=[N+]=[N-])n3)CCN(CC(=O)O)CC2)n1)(C(C)C)C(C)C [TD728]
conversion to 1,5-cz-[M(Lig)], Bi^III ([1]; 1 week at 80° C.): 29% | conversion to 1,5-cz-[M(Lig)], Ir^III ([1]; 1 week at 80° C.): 0% | conversion to 1,5-cz-[M(Lig)], Ru^III ([1]; 1 week at 80° C.): 0% | conversion to 1,5-cz-[M(Lig)], Sc^III ([1]; 1 week at 80° C.): 2% | conversion to 1,5-cz-[M(Lig)], Y^III ([1]; 1 week at 80° C.): 50% | conversion to 1,5-cz-[M(Lig)], Bi^III ([1]; 1 hour at 80° C.): 5% | conversion to 1,5-cz-[M(Lig)], Ir^III ([1]; 1 hour at 80° C.): 0% | conversion to 1,5-cz-[M(Lig)], Ru^III ([1]; 1 hour at 80° C.): 0% | conversion to 1,5-cz-[M(Lig)], Sc^III ([1]; 1 hour at 80° C.): 0% | conversion to 1,5-cz-[M(Lig)], Y^III ([1]; 1 hour at 80° C.): 1% | conversion to 1,5-cz-[M(Lig)], Pt^II ([2]; 1 week at 80° C.): 0% | conversion to 1,5-cz-[M(Lig)], Ca^II ([2]; 1 week at 80° C.): 37% | conversion to 1,5-cz-[M(Lig)], Cd^II ([2]; 1 week at 80° C.): 36% | conversion to 1,5-cz-[M(Lig)], Mn^II ([2]; 1 week at 80° C.): 1% | conversion to 1,5-cz-[M(Lig)], Pb^II ([2]; 1 week at 80° C.): 14% | conversion to 1,5-cz-[M(Lig)], Pd^II ([2]; 1 week at 80° C.): 1% | conversion to 1,5-cz-[M(Lig)], Pt^II ([2]; 1 hour at 80° C.): 0% | conversion to 1,5-cz-[M(Lig)], Ca^II ([2]; 1 hour at 80° C.): 0% | conversion to 1,5-cz-[M(Lig)], Mn^II ([2]; 1 hour at 80° C.): 0% | conversion to 1,5-cz-[M(Lig)], Pb^II ([2]; 1 hour at 80° C.): 0% | conversion to 1,5-cz-[M(Lig)], Pd^II ([2]; 1 hour at 80° C.): 1% | conversion to 1,5-cz-[M(Lig)], Cd^II ([2]; 1 hour at 80° C., TD714 sum of two diastereoisomers): 1% | conversion to 1,5-cz-[Ln(Lig)], Ce^III ([3]; after 1 week at 80° C.): 5% | conversion to 1,5-cz-[Ln(Lig)], Ce^III ([3]; after 1 hour at 80° C.): 0% | conversion to 1,5-cz-[Ln(Lig)], Dy^III ([3]; after 1 week at 80° C.): 54% | conversion to 1,5-cz-[Ln(Lig)], Dy^III ([3]; after 1 hour at 80° C.): 1% | conversion to 1,5-cz-[Ln(Lig)], Er^III ([3]; after 1 week at 80° C.): 72% | conversion to 1,5-cz-[Ln(Lig)], Er^III ([3]; after 1 hour at 80° C.): 1% | conversion to 1,5-cz-[Ln(Lig)], Eu^III ([3]; after 1 week at 80° C.): 35% | conversion to 1,5-cz-[Ln(Lig)], Eu^III ([3]; after 1 hour at 80° C.): 0% | conversion to 1,5-cz-[Ln(Lig)], Gd^III ([3]; after 1 week at 80° C.): 32% | conversion to 1,5-cz-[Ln(Lig)], Gd^III ([3]; after 1 hour at 80° C.): 0% | conversion to 1,5-cz-[Ln(Lig)], Ho^III ([3]; after 1 week at 80° C.): 60% | conversion to 1,5-cz-[Ln(Lig)], Ho^III ([3]; after 1 hour at 80° C.): 1% | conversion to 1,5-cz-[Ln(Lig)], La^III ([3]; after 1 week at 80° C.): 13% | conversion to 1,5-cz-[Ln(Lig)], La^III ([3]; after 1 hour at 80° C.): 0% | conversion to 1,5-cz-[Ln(Lig)], Lu^III ([3]; after 1 week at 80° C.): 88% | conversion to 1,5-cz-[Ln(Lig)], Lu^III ([3]; after 1 hour at 80° C.): 2% | conversion to 1,5-cz-[Ln(Lig)], Nd^III ([3]; after 1 week at 80° C.): 24% | conversion to 1,5-cz-[Ln(Lig)], Nd^III ([3]; after 1 hour at 80° C.): 0% | conversion to 1,5-cz-[Ln(Lig)], Pr^III ([3]; after 1 week at 80° C.): 23% | conversion to 1,5-cz-[Ln(Lig)], Pr^III ([3]; after 1 hour at 80° C.): 0% | conversion to 1,5-cz-[Ln(Lig)], Sm^III ([3]; after 1 week at 80° C.): 34% | conversion to 1,5-cz-[Ln(Lig)], Sm^III ([3]; after 1 hour at 80° C.): 0% | conversion to 1,5-cz-[Ln(Lig)], Tb^III ([3]; after 1 week at 80° C.): 49% | conversion to 1,5-cz-[Ln(Lig)], Tb^III ([3]; after 1 hour at 80° C.): 0% | conversion to 1,5-cz-[Ln(Lig)], Tm^III ([3]; after 1 week at 80° C.): 84% | conversion to 1,5-cz-[Ln(Lig)], Tm^III ([3]; after 1 hour at 80° C.): 1% | conversion to 1,5-cz-[Ln(Lig)], Yb^III ([3]; after 1 week at 80° C.): 88% | conversion to 1,5-cz-[Ln(Lig)], Yb^III ([3]; after 1 hour at 80° C.): 2%

O=C([O-])CN1CCN2CCN(CC(=O)[O-])CCN(CC1)Cc1cccc(n1)-c1cnnn1Cc1cc(-c3ccccc3)cc(n1)C2.[Pb+2] [TD876]
fraction of intact chelate ([4]; 1 month): 0% | fraction of intact chelate ([4]; 1 week): 0% | fraction of intact chelate ([4]; 1 hour): 6% | fraction of intact chelate ([4]; 1 day): 0% | fraction of intact chelate ([5]; 1 month): 0% | fraction of intact chelate ([5]; 1 week): 0% | fraction of intact chelate ([5]; 1 hour): 0% | fraction of intact chelate ([5]; 1 day): 0% | fraction of intact chelate ([6]; 1 month): 0% | fraction of intact chelate ([6]; 1 week): 0% | fraction of intact chelate ([6]; 1 hour): 0% | fraction of intact chelate ([6]; 1 day): 0% | fraction of intact chelate ([7]; 1 month): 0% | fraction of intact chelate ([7]; 1 week): 0% | fraction of intact chelate ([7]; 1 hour): 0% | fraction of intact chelate ([7]; 1 day): 0%

O=C1C[N@@]2CC[N@]3CC[N@@](CC[N@](CC2)Cc2cccc(n2)-c2cnnn2Cc2cc(-c4ccccc4)cc(n2)C3)CC(=O)[O][Cd][O]1 [TD880]
fraction of intact chelate ([4]; 1 month): 100% | fraction of intact chelate ([4]; 1 week): 100% | fraction of intact chelate ([4]; 1 hour): 100% | fraction of intact chelate ([4]; 1 day): 100% | fraction of intact chelate ([5]; 1 month): 100% | fraction of intact chelate ([5]; 1 week): 100% | fraction of intact chelate ([5]; 1 hour): 100% | fraction of intact chelate ([5]; 1 day): 100% | fraction of intact chelate ([6]; 1 month): 63% | fraction of intact chelate ([6]; 1 week): 90% | fraction of intact chelate ([6]; 1 hour): 100% | fraction of intact chelate ([6]; 1 day): 99% | fraction of intact chelate ([7]; 1 month): 0% | fraction of intact chelate ([7]; 1 week): 0% | fraction of intact chelate ([7]; 1 hour): 43% | fraction of intact chelate ([7]; 1 day): 0%

O=C([O-])CN1CCN2CCN(CC(=O)[O-])CCN(CC1)Cc1cccc(n1)-c1cnnn1Cc1cc(-c3ccccc3)cc(n1)C2.[Zn+2] [TD890]
fraction of intact chelate ([4]; 1 month): 5% | fraction of intact chelate ([4]; 1 week): 54% | fraction of intact chelate ([4]; 1 hour): 100% | fraction of intact chelate ([4]; 1 day): 93% | fraction of intact chelate ([5]; 1 month): 0% | fraction of intact chelate ([5]; 1 week): 0% | fraction of intact chelate ([5]; 1 hour): 46% | fraction of intact chelate ([5]; 1 day): 0% | fraction of intact chelate ([6]; 1 month): 0% | fraction of intact chelate ([6]; 1 week): 0% | fraction of intact chelate ([6]; 1 hour): 0% | fraction of intact chelate ([6]; 1 day): 0% | fraction of intact chelate ([7]; 1 month): 0% | fraction of intact chelate ([7]; 1 week): 0% | fraction of intact chelate ([7]; 1 hour): 0% | fraction of intact chelate ([7]; 1 day): 0%

O=C1C[N@@]2CC[N@]3CC[N@@](CC[N@](CC2)Cc2cccc(n2)-c2cn(nn2)Cc2cc(-c4ccccc4)cc(n2)C3)CC(=O)[O][Cd][O]1 [TD900]
fraction of intact chelate ([4]; 1 month): 63% | fraction of intact chelate ([4]; 1 week): 91% | fraction of intact chelate ([4]; 1 hour): 100% | fraction of intact chelate ([4]; 1 day): 99% | fraction of intact chelate ([5]; 1 month): 0% | fraction of intact chelate ([5]; 1 week): 0% | fraction of intact chelate ([5]; 1 hour): 56% | fraction of intact chelate ([5]; 1 day): 0% | fraction of intact chelate ([6]; 1 month): 0% | fraction of intact chelate ([6]; 1 week): 0% | fraction of intact chelate ([6]; 1 hour): 0% | fraction of intact chelate ([6]; 1 day): 0% | fraction of intact chelate ([7]; 1 month): 0% | fraction of intact chelate ([7]; 1 week): 0% | fraction of intact chelate ([7]; 1 hour): 0% | fraction of intact chelate ([7]; 1 day): 0%

O=P1(c2ccccc2)C[N@@]2CC[N@]3CC[N@@](CC[N@](CC2)Cc2cccc(n2)-c2cnnn2Cc2cccc(n2)C3)CP(=O)(c2ccccc2)[O][Gd][O]1 (stereo partly shown) [TD925]
fraction of intact chelate ([4]; 1 month): 100% | fraction of intact chelate ([4]; 1 week): 100% | fraction of intact chelate ([4]; 1 hour): 100% | fraction of intact chelate ([4]; 1 day): 100% | fraction of intact chelate ([5]; 1 month): 60% | fraction of intact chelate ([5]; 1 week): 90% | fraction of intact chelate ([5]; 1 hour): 100% | fraction of intact chelate ([5]; 1 day): 98% | fraction of intact chelate ([6]; 1 month): 0% | fraction of intact chelate ([6]; 1 week): 21% | fraction of intact chelate ([6]; 1 hour): 100% | fraction of intact chelate ([6]; 1 day): 82% | fraction of intact chelate ([7]; 1 month): 0% | fraction of intact chelate ([7]; 1 week): 0% | fraction of intact chelate ([7]; 1 hour): 77% | fraction of intact chelate ([7]; 1 day): 0%
